# Reference: patent US9845295B2, “Triphenylethylene compounds and uses thereof” (Purdue Research Foundation, priority 2015, dated 2017)
# Columns and labels:
# [1] = biological target: T1, recombinant human aromatase (CYP19) (Homo sapiens, UniProt P11511); experiment: Inhibition of recombinant human aromatase (CYP19) by microsomal incubations (MFC fluorometric substrate); type: biochemical; conditions: for IC50: Table 1, mean of at least three experiments; for aromatase percent inhibition: Table 2, at 50000 nM compound, 50 µM
# T1 construct: purchased BD Biosciences (San Jose, Calif.)
# T1 sequence (P11511 1-503): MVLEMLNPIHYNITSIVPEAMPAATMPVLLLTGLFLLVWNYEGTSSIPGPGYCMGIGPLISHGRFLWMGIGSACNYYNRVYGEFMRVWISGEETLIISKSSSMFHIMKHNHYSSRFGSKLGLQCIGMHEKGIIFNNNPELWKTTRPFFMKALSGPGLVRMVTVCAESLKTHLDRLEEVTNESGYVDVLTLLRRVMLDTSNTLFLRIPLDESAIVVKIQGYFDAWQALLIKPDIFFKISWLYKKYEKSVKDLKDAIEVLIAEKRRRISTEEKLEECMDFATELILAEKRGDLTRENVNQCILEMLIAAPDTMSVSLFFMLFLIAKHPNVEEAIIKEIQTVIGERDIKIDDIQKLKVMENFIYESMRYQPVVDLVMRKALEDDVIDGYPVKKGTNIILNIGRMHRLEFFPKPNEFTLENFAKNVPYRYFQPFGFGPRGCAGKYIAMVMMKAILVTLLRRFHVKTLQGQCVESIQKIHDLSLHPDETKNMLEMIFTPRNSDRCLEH
# Protocol: Inhibition of Recombinant Human Aromatase (CYP19) by Microsomal Incubations.
# All tested samples were dissolved in either methanol or DMSO. […] All the reactions were stopped by adding 0.1 M tris base dissolved in acetonitrile (75 μL). […] The extent of enzyme inhibition was expressed as the percentage of remaining enzyme activity compared to the control.
# [2] = biological target: T2, recombinant human ER-α (Homo sapiens, UniProt P03372); experiment: Binding affinity for recombinant human ER-α (fluorescence polarization, ES2 displacement); conditions: for EC50: determined only for compounds with >90% competition; for IC50: read-out: binding affinities for ER-α (IC50)
# T2 construct: purchased Invitrogen (Carlsbad, Calif.)
# T2 sequence (P03372 1-595): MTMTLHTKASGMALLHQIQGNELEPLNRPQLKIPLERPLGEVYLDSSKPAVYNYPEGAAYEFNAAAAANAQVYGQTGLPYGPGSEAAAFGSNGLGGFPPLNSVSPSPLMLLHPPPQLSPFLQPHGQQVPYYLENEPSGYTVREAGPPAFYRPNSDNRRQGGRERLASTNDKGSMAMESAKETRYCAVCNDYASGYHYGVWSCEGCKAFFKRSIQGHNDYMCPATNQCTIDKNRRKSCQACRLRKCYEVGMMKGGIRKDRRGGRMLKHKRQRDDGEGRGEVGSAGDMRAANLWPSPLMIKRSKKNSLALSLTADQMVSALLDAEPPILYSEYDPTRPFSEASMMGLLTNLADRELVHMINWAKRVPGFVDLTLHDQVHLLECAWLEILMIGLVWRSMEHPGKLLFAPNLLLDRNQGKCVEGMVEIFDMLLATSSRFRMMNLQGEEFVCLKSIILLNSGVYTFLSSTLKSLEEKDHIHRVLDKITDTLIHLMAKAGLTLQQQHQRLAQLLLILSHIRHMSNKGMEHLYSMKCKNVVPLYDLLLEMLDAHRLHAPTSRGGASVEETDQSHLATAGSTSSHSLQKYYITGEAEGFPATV
# Protocol: (§1) Binding Affinities for Recombinant Human ER-α and ER-β.
# (§2) The binding affinities of ER-α and ER-β were determined by measuring the change of polarization value when the fluorescent estrogen ligand, ES2, was displaced by the tested compounds. Experimental procedures were consistent with the protocol provided by Invitrogen. The fluorescent estrogen ligand, ES2, was provided in methanol/water (4:1, v/v) with the concentration of 1800 nM. Recombinant human ER-α and ER-β were provided in buffer (50 mM bis-tris propane, 400 mM KCl, 2 mM DTT, 1 mM EDTA and 10% glycerol), with the concentration of 734 nM and 3800 nM, respectively. All tested samples were dissolved in either methanol or DMSO. The sample solutions (1 pt) were mixed well with 49 pt of ES2 screening buffer (100 mM potassium phosphate, 100 μg/mL BGG and 0.02% NaN3). The ER-α/ES2 complex was prepared with the fluorescent estrogen ligand ES2, human recombinant ER and ES2 screening buffer with the concentrations of 9 nM ES2 and 30 nM ER-α. The ER-β/ES2 complex was prepared with the fluorescent estrogen ligand ES2, human recombinant ER-β and ES2 screening buffer with the concentrations of 9 nM ES2 and 20 nM ER-ft Reactions were initiated by adding ER/ES2 complex (50 μL) to bring the incubation volume to 100 μL and incubated for 2 h avoiding light. […] Excitation-emission wavelengths for fluorescence polarization were […]. The polarization values in the presence of the test competitors were compared with those in control, in which the competitor was replaced with vehicle. The extent of competition was expressed as the percentage of remaining polarization compared to the control.
# [3] = biological target: T3, recombinant human ER-β (Homo sapiens, UniProt Q92731); experiment: Binding affinity for recombinant human ER-β (fluorescence polarization, ES2 displacement); conditions: for EC50: Table 1, determined only for compounds with >90% competition; for IC50: read-out: binding affinities for ER-β (IC50); for inhibition at 100 µM: 2 h, Table 2, at 100000 nM compound, read-out: ER-β percent competition
# T3 construct: purchased Invitrogen (Carlsbad, Calif.)
# T3 sequence (Q92731 whole entry): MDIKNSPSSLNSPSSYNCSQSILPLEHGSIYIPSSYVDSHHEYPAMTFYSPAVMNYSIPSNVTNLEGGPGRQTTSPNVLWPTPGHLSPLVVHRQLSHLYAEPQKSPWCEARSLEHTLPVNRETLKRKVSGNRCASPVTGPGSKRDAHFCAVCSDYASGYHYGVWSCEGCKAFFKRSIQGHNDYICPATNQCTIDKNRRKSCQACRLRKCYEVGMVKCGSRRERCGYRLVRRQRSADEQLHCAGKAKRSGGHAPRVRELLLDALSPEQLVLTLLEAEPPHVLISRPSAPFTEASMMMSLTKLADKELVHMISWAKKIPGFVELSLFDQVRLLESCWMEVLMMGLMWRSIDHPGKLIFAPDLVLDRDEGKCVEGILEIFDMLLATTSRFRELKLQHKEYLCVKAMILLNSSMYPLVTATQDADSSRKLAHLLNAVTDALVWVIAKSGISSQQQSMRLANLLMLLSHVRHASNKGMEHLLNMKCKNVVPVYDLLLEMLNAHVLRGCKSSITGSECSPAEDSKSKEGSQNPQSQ
# Protocol: as §1, §2
IC50 [1] [nM],"ER-α percent competition ([2]; Table 1, at 100 μM compound) [% competition]",SMILES,also measured
15200 ± 300,0,"N#CCC(=C(c1ccc(O)cc1)c1ccc(O)cc1)c1ccc(O)cc1 [Compound 17a, 3,4,4-Tris(4-hydroxyphenyl)but-3-enenitrile]",
60 ± 4.1,,"Oc1ccc(C(Cn2ccnc2)=C(c2ccc(O)cc2)c2ccc(O)cc2)cc1 [Compound 18a, 4,4′,4″-(3-(1H-Imidazol-1-yl)prop-1-ene-1,1,2-triyl)triphenol]",EC50 [3]: 73.6 ± 29.9 nM; IC50 [3]: 56.3 to 73.6 nM; EC50 ([2]; Table 1): 97.8 ± 42.3 nM; IC50 [2]: 85.2 to 97.8 nM
94.4 ± 3.5,,"Oc1ccc(C(=C(Cn2ccnc2)c2ccc(O)c(F)c2)c2ccc(O)cc2)cc1 [Compound 18b, 4,4′-(2-(3-Fluoro-4-hydroxyphenyl)-3-(1H-imidazol-1-yl)prop-1-ene-1,1-diyl)diphenol]",EC50 [3]: 56.3 ± 17.8 nM; IC50 [3]: 56.3 to 73.6 nM; EC50 ([2]; Table 1): 85.2 ± 14.2 nM; IC50 [2]: 85.2 to 97.8 nM
3030 ± 150,45,"Oc1ccc(C(Cn2cncn2)=C(c2ccc(O)cc2)c2ccc(O)cc2)cc1 [Compound 19a, 4,4′,4″-(3-(1H-1,2,4-Triazol-1-yl)prop-1-ene-1,1,2-triyl)triphenol]",
2980 ± 50,2,"Oc1ccc(C(=C(Cn2cncn2)c2ccc(O)c(F)c2)c2ccc(O)cc2)cc1 [Compound 19b, 4,4′-(2-(3-Fluoro-4-hydroxyphenyl)-3-(1H-1,2,4-triazol-1-yl)prop-1-ene-1,1-diyl)diphenol]",
12500 ± 400,,"Oc1ccc(C(Cn2cnnc2)=C(c2ccc(O)cc2)c2ccc(O)cc2)cc1 [Compound 20a, 4,4′,4″-(3-(4H-1,2,4-Triazol-4-yl)prop-1-ene-1,1,2-triyl)triphenol]",EC50 [3]: 1080 ± 100 nM; EC50 ([2]; Table 1): 943 ± 285 nM
14200 ± 1100,0,"Oc1ccc(C(=C(Cn2cnnc2)c2ccc(O)c(F)c2)c2ccc(O)cc2)cc1 [Compound 20b, 4,4′-(2-(3-Fluoro-4-hydroxyphenyl)-3-(4H-1,2,4-triazol-4-yl)prop-1-ene-1,1-diyl)diphenol]",
5.24 ± 0.41,,"Nc1ccc(C(Cn2ccnc2)=C(c2ccc(O)cc2)c2ccc(O)cc2)cc1 [Compound 26, 4,4′-(2-(4-Aminophenyl)-3-(1H-imidazol-1-yl)prop-1-ene-1,1-diyl)diphenol]",EC50 [3]: 296 ± 154 nM; EC50 ([2]; Table 1): 1830 ± 910 nM
104 ± 9,0,"Nc1ccc(C(Cn2cncn2)=C(c2ccc(O)cc2)c2ccc(O)cc2)cc1 [Compound 27, 4,4′-(2-(4-Aminophenyl)-3-(1H-1,2,4-triazol-1-yl)prop-1-ene-1,1-diyl)diphenol]",
17.7 ± 1.2,13,"Nc1ccc(C(Cn2cnnc2)=C(c2ccc(O)cc2)c2ccc(O)cc2)cc1 [Compound 28, 4,4′-(2-(4-Aminophenyl)-3-(4H-1,2,4-triazol-4-yl)prop-1-ene-1,1-diyl)diphenol]",
60.4 ± 1.7,0,"Oc1ccc(C(=C(Cn2ccnc2)c2cccc(O)c2)c2ccc(O)cc2)cc1 [Compound 32, 4,4′-(2-(3-Hydroxyphenyl)-3-(1H-imidazol-1-yl)prop-1-ene-1,1-diyl)diphenol]",
439 ± 16,60,"Nc1cccc(C(Cn2ccnc2)=C(c2ccc(O)cc2)c2ccc(O)cc2)c1 [Compound 35, 4,4′-(2-(3-Aminophenyl)-3-(1H-imidazol-1-yl)prop-1-ene-1,1-diyl)diphenol]",
,,"CC(=C(c1ccc(O)cc1)c1ccc(O)cc1)c1ccc([N+](=O)[O-])cc1 [Compound 37a, 4-(1-(4-Hydroxyphenyl)-2-(4-nitrophenyl)prop-1-enyl)phenol]","inhibition at 100 µM [3]: 55%; aromatase percent inhibition [1]: 75 % inhibition; ER-α percent competition ([2]; Table 2, at 100000 nM compound): 19% competition"
,,"CCC(=C(c1ccc(O)cc1)c1ccc(O)cc1)c1ccc([N+](=O)[O-])cc1 [Compound 37b, 4-(1-(4-Hydroxyphenyl)-2-(4-nitrophenyl)but-1-enyl)phenol]","inhibition at 100 µM [3]: 66%; aromatase percent inhibition [1]: 78 % inhibition; ER-α percent competition ([2]; Table 2, at 100000 nM compound): 40% competition"
